Laboratory results: paper PMC7486406, “A flavin-dependent monooxygenase catalyzes the initial step in cyanogenic glycoside synthesis in ferns” (Communications Biology, 2020)

Key:
PaqFOS1 [1] = biological target: T1, PaqFOS1 (Pteridium aquilinum, UniProt A0A7H1KPE2); assay: absorbance spectrometry; SEC monitored at […] nm; assay type: binding; settings: cofactor of the isolated protein; 50 mM HEPES pH 7.5, 150 mM NaCl, 0.5 mM TCEP
T1 construct: gene FOS1; full-length, N-terminal 6xHis, codon-optimised, pET-30a(+), E. coli BL21(DE3)-R3; methods print contig as Paq18305

PaqFOS1 [2] = biological target: T1, PaqFOS1; assay: absorbance spectrometry; SEC monitored at […] nm; assay type: binding; settings: cofactor of the isolated protein; 50 mM HEPES pH 7.5, 150 mM NaCl, 0.5 mM TCEP; remark: listed apart in the source
[3] = biological target: the molecule itself; assay: SEC; HiLoad 16/60 Superdex 200 calibrated with a high molecular weight kit (43 to 669 kDa); 50 mM HEPES pH 7.5, 150 mM NaCl, 0.5 mM TCEP; after His-Trap purification; self-association (dimer)

With `Cc1cc2nc3c(=O)[nH]c(=O)nc-3n(C[C@H](O)[C@H](O)[C@H](O)COP(=O)(O)OP(=O)(O)OC[C@H]3O[C@@H](n4cnc5c(N)ncnc54)[C@H](O)[C@@H]3O)c2cc1C` [FAD] the “absorbance spectrometry; SEC monitored at 450 nm” value (PaqFOS1 [1]) was “The isolated PaqFOS1 protein binds the cofactors FAD and NADPH as demonstrated by absorbance spectrometry”.

For `NC(=O)C1=CN([C@@H]2O[C@H](COP(=O)(O)OP(=O)(O)OC[C@H]3O[C@@H](n4cnc5c(N)ncnc54)[C@H](OP(=O)(O)O)[C@@H]3O)[C@@H](O)[C@H]2O)C=CC1` [NADPH], the “absorbance spectrometry; SEC monitored at 254 nm” value (PaqFOS1 [2]) was “The isolated PaqFOS1 protein binds the cofactors FAD and NADPH as demonstrated by absorbance spectrometry”.

B1: Pteridium aquilinum fern oxime synthase 1 (PaqFOS1), recombinant with N-terminal 6xHis tag (enzyme, UniProt A0A7H1KPE2 1-543, looked up)
chain: MAPNVPSAMYTTCLPERTALQEKLSGDRAALAARVCIVGAGVTGLCACKHLLQHGVESVVLEMQTGVGGVWRNTFSSTKLQTPRDAFQYSDFLWPPGTPRLPSHAQVLDYLESYARKFQVLERIVFNCRVLEVRRLDLEGPPPVSAFQKLPANAKWAVRVQQGSADLTQLDAEWLYFEYVLVCVGHYGDIAKTPKFAVPSKGPQAFHGKVLHSLDYSKLDEAATKKLLTGKRVIVVGSRKSALDAVMEASNSNRGPDGKPVTLLFRTPHWVIAHHFFYGIPMSYMTSRFSQLLVPQPGGGSTLHDIISAALSPLRWALSKALEFYLLSTLPLAEHGFVPNQNIFEEFKSCKLTLLPEHFFDYVKEGHIKLQKTSTWCFSSNGVTLPNGDELEADVIILCTGYEGERKIKSLLGTSFEDILQENDSSIPLYRGVLPPRIPNMAILGFQESYSNLFSAEMSARWVAYWIAGKIALPNKEIMEMEAYKWLRNTKPFMTINDKTCVNTTALQLADQMCRDMGWNSRRKKSLLQEIFAPYGNMDYKDE
notes: identical to the 543 aa ORF of Pa22758 except for a single amino acid substitution; calculated mass 62.5 kDa; codon optimized for E. coli; No removal of the His tag is described; also called Paq18302; Paq18302 FMO
B1 was tested, and the “stoichiometry N” value [3] was 2.

B2: Arabidopsis thaliana flavin-dependent monooxygenase 1 (AtFMO1), recombinant with upstream 6xHis tag (enzyme, A. thaliana, UniProt Q9LMA1 1-530, looked up)
chain: MASNYDKLTSSRVAIIGAGVSGLAAAKNLVHHNPTVFEASDSVGGVWRSCTYETTKLQSARVDYEFSDFPWPNNRDDTTFPPYLEILDYLESYAKHFDLLKFMKFGSKVIEVRFIGDGETPQMVDLGAYGNLLPGKPVWEVAVQIGDSGDIQWHAFEFVVVCTGKYGDVPRIPAFPAKKGPEMFQGKVMHSMDYCKLEKEEASTLLSGKKVAVIGFKKSAIDLALESALANQGEGGKACTMVVRTTHWGIPHYWVWGLPFFLFYSSRASQFLHDRPNQSFLRTLFCLLFSLLRAVVSKFIESYVLWKLPLEKYGLKPNHSFEEDYASCQMAIIPENFFEEADKGMIRFKKSSKWWFYEEGIVFEDGTTLEADVVILATGYDGKKKLKAIVPEPFRTWLEFPSGVMPLYRGTIHPLIPNMGFVGYVQSSSNLHTSELRSMWLSRLVDEKFRLPSKEKMLDQFLKEMEVTRNSSRFYKRHCISTFSIQHADDMCNDMGLNPWRKSNFLLEAFSPYGSQDYRLGQEEKEDMTA
notes: AtFMO1 from Arabidopsis thaliana (Q9LMA1), codon optimized for E. coli; The methods describe the isolation for PaqFOS1 only; AtFMO1 is said to have been expressed and isolated in parallel; source: E. coli BL21(DE3)-R3, pET-30a(+), expressed and isolated in parallel to PaqFOS1
B2 was tested, and the “stoichiometry N” value [3] was 2.
